Assay results: US11028090B2 (Dong Wha Pharm. Co., Ltd., priority 2017, dated 2021)
“And” between values parts separate entries of the source, which are not always exact repeats. Equal values may be shown once. Read-outs that look alike come from different tables or passages of the source.

Target: BRD4 (BD1+BD2) bromodomain (Homo sapiens (Human), UniProt O60885)
Test: BRD4 binding inhibition (AlphaScreen, GST-BRD4 vs tetraacetylated histone H4 peptide)
Method: A mixture comprising 100 nM GST-BRD4 (BD1+BD2) and 100 nM biotinylated acetyl-histone H4 (Lys5,8,12,16) peptide was prepared in assay buffer (50 mM HEPES pH 7.4; 25 mM NaCl; 0.05% Tween 20; 0.1% bovine serum albumin (BSA); 10 mM dithiothreitol (DTT)). After adding 6 μl of the mixture to the diluent, 6 μl of the pre-mixed AlphaLISA Glutathione Acceptor Beads and AlphaScreen Streptavidin Donor Beads (PerkinElmer, 10 μg/ml in assay buffer, respectively) was added thereto. The samples were incubated in the dark at room temperature for 30 minutes (shaking at 300 rpm). Then, the signals were measured with PerkinElmer Envision HTS Multilabel Reader using an alpha screen protocol of PerkinElmer. Each plate contained the negative control in which biotinylated acetyl-histone H4 peptide and GST-BRD4 (BD1+BD2) were replaced by assay buffer. In the case of using the software GraphPad Prism for calculation, the negative control point was input as a low standard value. The positive control (probe molecule l-BET762 containing protein/peptide mixture) proceeded to pipetting.

[1] = GST-BRD4 (BD1+BD2) / biotinylated acetyl-histone H4 (Lys5,8,12,16) peptide, read-out: IC50, BRD4 binding inhibition
[2] = GST-BRD4 (BD1+BD2) vs biotinylated acetyl-histone H4 peptide, AlphaScreen, read-out: BRD4 IC50

Row | IC50 [1] [µM] | IC50 [2] | Structure (SMILES)
1 | ≤ 0.05 | 0.033 µM | COc1ccc2c(c1)nc(NCCCCNC(=O)[C@@H](C)O)c1nnc(C)n12 [Example 295, 2-(R)-hydroxy-N-[4-(7-methoxy-1-methyl-[1,2,4]triazolo[4,3-a]quinoxaline-4-ylamino)-butyl]-propaneamide]
2 | ≤ 0.05 | 0.096 µM and 0.027 µM | COc1ccc2c(c1)nc(NCCCCNC(=O)C(C)(C)OC(C)=O)c1nnc(C)n12 [Example 296, acetic acid-1-[4-(7-methoxy-1-methyl-[1,2,4]triazolo[4,3-a]quinoxaline-4-ylamino)-butylcarbamoyl]-1-methyl-ethylester]
3 | ≤ 0.05 | 0.027 µM | COc1ccc2c(c1)nc(NCCCCNC(=O)C(C)(C)O)c1nnc(C)n12 [Example 297, 2-hydroxy-N-[4-(7-methoxy-1-methyl-[1,2,4]triazolo[4,3-a]quinoxaline-4-ylamino)-butyl]-2-methyl-propionamide]
4 | ≤ 0.05 | 0.016 µM | COc1ccc2c(c1)nc(NCCCCNC(=O)[C@@H](OC)C(C)C)c1nnc(C)n12 [Example 301, 2-(S)-methoxy-N-[4-(7-methoxy-1-methyl-[1,2,4]triazolo[4,3-a]quinoxaline-4-ylamino)-butyl]-3-methyl-butyramide]
5 | – | 0.063 µM | COc1ccc2c(c1)nc(NCCCCNC(=O)COC(C)=O)c1nnc(C)n12 [Example 303, acetic acid-[4-(7-methoxy-1-methyl-[1,2,4]triazolo[4,3-a]quinoxaline-4-ylamino)-butylcarbamoyl]-methylester]
6 | ≤ 0.05 | 0.041 µM | CCOC(=O)CC(=O)NCCCCNc1nc2cc(OC)ccc2n2c(C)nnc12 [Example 305, N-[4-(7-methoxy-1-methyl-[1,2,4]triazolo[4,3-a]quinoxaline-4-ylamino)-butyl]-malonamic acid ethylester]
7 | – | 0.056 µM | COc1ccc2c(c1)nc(NCCCCNC(=O)[C@H](C(C)C)N1CCOCC1)c1nnc(C)n12 [Example 314, N-[4-(7-methoxy-1-methyl-[1,2,4]triazolo[4,3-a]quinoxaline-4-ylamino)-butyl]-3-methyl-2-(S)-morpholine-4-yl-butyramide]
8 | ≤ 0.05 | 0.031 µM | COc1ccc2c(c1)nc(NCCCCNC(=O)[C@H](C(C)C)N1CCC(CCO)CC1)c1nnc(C)n12 [Example 317, 2-(S)-[4-(2-hydroxy-ethyl)-piperidine-1-yl]-N-[4-(7-methoxy-1-methyl-[1,2,4]triazolo[4,3-a]quinoxaline-4-ylamino)-butyl]-3-methyl-butyramide]
9 | ≤ 0.01 | 0.007 µM | COc1ccc2c(c1)nc(NCCCCNC(=O)[C@@H](NC(=O)[C@H](C)O)C(C)C)c1nnc(C)n12 [Example 324, 2-(S)-(2-(S)-hydroxy-propionylamino)-N-[4-(7-methoxy-1-methyl-[1,2,4]triazolo[4,3-a]quinoxaline-4-ylamino)-butyl]-3-methyl-butyramide]
10 | – | 0.064 µM | COc1ccc2c(c1)nc(NCCCCNC(=O)[C@@H](N)Cc1ccc(O)cc1)c1nnc(C)n12 [Example 326, 2-(S)-amino-3-(4-hydroxy-phenyl)-N-[4-(7-methoxy-1-methyl-[1,2,4]triazolo[4,3-a]quinoxaline-4-ylamino)-butyl]-propionamide]
11 | – | 0.06 µM | COc1ccc2c(c1)nc(NCCCCNC(=O)N(C)C)c1nnc(C)n12 [Example 334, 3-[4-(7-methoxy-1-methyl-[1,2,4]triazolo[4,3-a]quinoxaline-4-ylamino)-butyl]-1,1-dimethyl-urea]
12 | ≤ 0.05 | 0.046 µM | COc1cc2nc(NCCCCNC(=O)CC(C)C)c3nnc(C)n3c2cc1Cc1ccc([N+](=O)[O-])cc1 [Example 339, N-{4-[7-methoxy-1-methyl-8-(4-nitro-benzyl)-[1,2,4]triazolo[4,3-a]quinoxaline-4-ylamino]-butyl}-3-methyl-butyramide]
13 | – | 0.1 µM | Cc1nnc2c(NCCCCNC(=O)CC(C)C)nc3cc(OCc4ccc(-c5nn[nH]n5)cc4)ccc3n12 [Example 348, 3-methyl-N-(4-{1-methyl-7-[4-(2H-tetrazol-5-yl)-benzyloxy]-[1,2,4]triazolo[4,3-a]quinoxaline-4-ylamino}-butyl)-butyramide]
14 | ≤ 0.05 | 0.016 µM | COCCOc1ccc2c(c1)nc(NCCCCNC(=O)OC(C)(C)C)c1nnc(C)n12 [Example 363, {4-[7-(2-methoxy-ethoxy)-1-methyl-[1,2,4]triazolo[4,3-a]quinoxaline-4-ylamino]-butyl}-carbamic acid-tert-butylester]
15 | – | 0.098 µM | COCCOc1ccc2c(c1)nc(NCCCCN)c1nnc(C)n12 [Example 364, N^1-[7-(2-methoxy-ethoxy)-1-methyl-[1,2,4]triazolo[4,3-a]quinoxaline-4-yl]-butane-1,4-diamine ditrifluoroacetic acid]
16 | ≤ 0.05 | – | COCCOc1ccc2c(c1)nc(NCCCCNC(=O)C(C)C)c1nnc(C)n12 [Example 376, {4-[7-(2-methoxy-ethoxy)-1-methyl-[1,2,4]triazolo[4,3-a]quinoxaline-4-ylamino]-butyl}-isobutyramide]
17 | ≤ 0.05 | 0.039 µM | COCCOc1ccc2c(c1)nc(NCCCCNC(=O)C1CC1)c1nnc(C)n12 [Example 377, cyclopropane carboxylic acid-{4-[7-(2-methoxy-ethoxy)-1-methyl-[1,2,4]triazolo[4,3-a]quinoxaline-4-ylamino]-butyl}-amide]
18 | ≤ 0.05 | 0.041 µM | COCCOc1ccc2c(c1)nc(NCCCCNC(=O)C(C)(C)OC(C)=O)c1nnc(C)n12 [Example 384, acetic acid-1-{4-[7-(2-methoxy-ethoxy)-1-methyl-[1,2,4]triazolo[4,3-a]quinoxaline-4-ylamino]-butylcarbamoyl}-1-methyl-ethylester]
19 | ≤ 0.05 | 0.049 µM | COCCOc1ccc2c(c1)nc(NCCCCNC(=O)C(C)(C)O)c1nnc(C)n12 [Example 385, 2-hydroxy-N-{4-(7-(2-methoxy-ethoxy)-1-methyl-[1,2,4]triazolo[4,3-a]quinoxaline-4-ylamino)-butyl}-2-methyl-propionamide]
20 | – | 0.078 µM | COCCOc1ccc2c(c1)nc(NCCCCNC(=O)COC(C)=O)c1nnc(C)n12 [Example 386, acetic acid-{4-[7-(2-methoxy-ethoxy)-1-methyl-[1,2,4]triazolo[4,3-a]quinoxaline-4-ylamino]-butylcarbamoyl}-methylester]
21 | ≤ 0.01 | 0.009 µM | COCCOc1ccc2c(c1)nc(NCCCCNC(=O)C(C)(C)C(F)(F)F)c1nnc(C)n12 [Example 392, 3,3,3-trifluoro-N-{4-[7-(2-methoxy-ethoxy)-1-methyl-[1,2,4]triazolo[4,3-a]quinoxaline-4-ylamino]-butyl}-2,2-dimethyl-propionamide]
22 | ≤ 0.05 | 0.034 µM | CCOC(=O)CC(=O)NCCCCNc1nc2cc(OCCOC)ccc2n2c(C)nnc12 [Example 394, N-{4-[7-(2-methoxy-ethoxy)-1-methyl-[1,2,4]triazolo[4,3-a]quinoxaline-4-ylamino]-butyl}-malonamic acid ethylester]
23 | ≤ 0.05 | 0.012 µM | COCCOc1ccc2c(c1)nc(NCCCCNC(=O)[C@@H](NC(=O)CC(C)C)C(C)C)c1nnc(C)n12 [Example 401, (S)-N-{4-[7-(2-methoxy-ethoxy)-1-methyl-[1,2,4]triazolo[4,3-a]quinoxaline-4-ylamino]-butyl}-3-methyl-2-(3-methyl-butyrylamino)-butyramide]
24 | ≤ 0.05 | 0.018 µM | COCCOc1ccc2c(c1)nc(NCCCCNC(=O)[C@@H](NC(=O)C(C)(C)C)C(C)C)c1nnc(C)n12 [Example 402, (S)-2-(2,2-dimethyl-propionylamino)-N-{4-[7-(2-methoxy-ethoxy)-1-methyl-[1,2,4]triazolo[4,3-a]quinoxaline-4-ylamino]-butyl}-3-methyl-butyramide]
25 | ≤ 0.05 | 0.015 µM | COCCOc1ccc2c(c1)nc(NCCCCNC(=O)[C@@H](NC(=O)[C@@H](O)C(C)C)C(C)C)c1nnc(C)n12 [Example 404, 2-(S,S)-hydroxy-N-(1-{4-[7-(2-methoxy-ethoxy)-1-methyl-[1,2,4]triazolo[4,3-a]quinoxaline-4-ylamino]-butylcarbamoyl}-2-methyl-propyl)-3-methyl-butyramide]
26 | ≤ 0.05 | – | COCCOc1ccc2c(c1)nc(NCCCCNC(=O)[C@@H](NS(C)(=O)=O)C(C)C)c1nnc(C)n12 [Example 405, 2-(S)-methanesulfonylamino-{4-[7-(2-methoxy-ethoxy)-1-methyl-[1,2,4]triazolo[4,3-a]quinoxaline-4-ylamino]-butyl}-3-methyl-butyramide]
27 | – | 0.052 µM | COCCOc1ccc2c(c1)nc(NCCCCNC(=O)c1ccccn1)c1nnc(C)n12 [Example 416, pyridine-2-carboxylic acid-{4-[7-(2-methoxy-ethoxy)-1-methyl-[1,2,4]triazolo[4,3-a]quinoxaline-4-ylamino]-butyl}-amide]

Row | Structure (SMILES) | IC50 [1] [µM] | IC50 [2]
28 | COc1ccc2c(c1)nc(NCCCCNC(=O)[C@H](Cc1ccc(O)cc1)NC(=O)OC(C)(C)C)c1nnc(C)n12 [Example 325, (S)-{2-(4-hydroxy-phenyl)-1-[4-(7-methoxy-1-methyl-[1,2,4]triazolo[4,3-a]quinoxaline-4-ylamino)-butylcarbamoyl]-ethyl}-carbamic acid-tert-butylester] | – | 0.071 µM
